Data reported in patent US20240358693A1, “METHODS OF TREATING PAIN” (Aisa Pharma, Inc., priority 2023, published 2024).

Test system: participants with SSc-RP
Test: Scleroderma Health Assessment Questionnaire (SHAQ): disability indices and visual analog scales
Type: in vivo, human
Details: PP Population, Part A, SSc patients, sensitivity analysis
Description: The standard, validated, patient reported outcome measures tool for SSc patients, the Scleroderma Health Assessment Questionnaire (SHAQ), will be used to assess the participant qualify of life. Details are attached in the Appendix. The participant quality of life will be scored, and a disability index calculated for each questionnaire completed by the patient at Screening and each in-clinic visit. The absolute change in participant quality of life from baseline to the end of each dosing period will be calculated similar to frequency data as before.
The SHAQ includes a Raynaud's VAS, which will be reported at screening and each in-clinic visit. The absolute change in Raynaud-VAS, assessed by the participants response to the SHAQ question ‘In the past 7 days, how much have your Raynaud's interfered with your daily activities?’ at baseline and the end of each dosing period will be calculated similar to frequency data as before.
The SHAQ is used to calculate a Disability Index to assess the participant qualify of life. The eight categories assessed by the Disability Index are 1) dressing and grooming, 2) arising, 3) eating, 4) walking, 5) hygiene, 6) reach, 7) grip, and 8) common daily activities. For each of these categories, patients report the amount of difficulty they have in performing two or three specific activities.
There are four possible responses for the Disability Index questions: • Without any difficulty=0 • With some difficulty=1 • With much difficulty=2 • Unable to do=3. • The highest score reported by the patient for any component question of the eight categories determines the score for that category. • If a component question is left blank or the response is too ambiguous to assign a score, then the score for that category is determined by the remaining completed question(s). • If all component questions are blank or if more than one answer is given, then follow up with the respondent is required. • If the respondent's mark is between the response columns, then move it to the closest one. If it's directly between the two, move it to the higher one.
Each of the disability items on the SHAQ has a companion aids/devices variable that is used to record what type(s) of assistance, if any, the participant uses for his/her usual activities. These variables (see below) are coded as follows: • 0=No assistance is needed. • 1=A special device is used by the patient in his/her usual activities. • 2=The patient usually needs help from another person. • 3=The patient usually needs BOTH a special device AND help from another person.
The scoring variables and scoring rules permit the computation of two disability indices, the Standard Disability Index and the Alternative Disability Index.
This question results in a new set of category scores that are computed by adjusting the score for each category, if necessary, based on the patient's use of an aid or device or assistance for that category. If either devices and/or help from another person are checked for a category, the score is set to “2”, unless the score is already “3” (i.e., scores of “0” or “1” are increased to “2”). For example, if the highest score for the dressing category is “1”, and the patient says they use a device for dressing, the computed category score would be “2”. The sum of the computed categories scores is then calculated and divided by the number of categories answered. This gives a score in the 0 to 3 range.
The aid and device variables are not used to calculate the alternative disability index; it is calculated by adding the scores for each of the categories and dividing by the number of categories answered. This gives a score in the 0 to 3 range.
The standard, validated, patient reported outcome measures tool for SSc patients, the SHAQ, was collected at the time points specified in the study schedules (FIG. 2 and FIGS. 4A and 4B) to assess the participant's quality of life. The SHAQ included a Raynaud's VAS that will also be reported separately.

[1] = Day 12 vs baseline, Subject 01-110 Day 12 score excluded
[2] = In-Clinic Visit (Day 12), Subject 01-110 Day 12 score excluded

Question: Which “SHAQ Visual Analogue Scale - Raynaud’s, Change from Baseline, Min” value (Day 12 vs baseline) does the source give for COCCOC(=O)C1=C(C)NC(C)=C(C(=O)OC/C=C/c2ccccc2)C1c1cccc([N+](=O)[O-])c1 (stereo not drawn) [Pooled Cilnidipine] here?
Answer: −2.40

Question: And the “SHAQ Visual Analogue Scale - Raynaud’s, Change from Baseline, Q1” value (Day 12 vs baseline)?
Answer: −1.050

Question: What about the “SHAQ Visual Analogue Scale - Raynaud’s, Change from Baseline, Q3” value (Day 12 vs baseline) of the same compound?
Answer: 0.350

Question: And the “SHAQ Visual Analogue Scale - Raynaud’s, Percent Change from Baseline, Max” value (Day 12 vs baseline)?
Answer: 136.4%

Question: And the “SHAQ Visual Analogue Scale - Raynaud’s, Percent Change from Baseline, Mean” value (Day 12 vs baseline)?
Answer: −18.62%

Question: And the “SHAQ Visual Analogue Scale - Raynaud’s, Percent Change from Baseline, Median” value (Day 12 vs baseline)?
Answer: −33.33%

Question: And the “SHAQ Visual Analogue Scale - Raynaud’s, Percent Change from Baseline, Min” value (Day 12 vs baseline)?
Answer: −100.0%

Question: What about the “SHAQ Visual Analogue Scale - Raynaud’s, Percent Change from Baseline, Q1” value (Day 12 vs baseline) of the same compound?
Answer: −68.57%

Question: And the “SHAQ Visual Analogue Scale - Raynaud’s, Percent Change from Baseline, Q3” value (Day 12 vs baseline)?
Answer: −2.27%

Question: What about the “SHAQ Visual Analogue Scale - Breathing Problems, Change from Baseline, Max” value [1] of the same compound?
Answer: 0.60

Question: What about the “SHAQ Visual Analogue Scale - Breathing Problems, Change from Baseline, Mean” value [1] of the same compound?
Answer: −0.388

Question: And the “SHAQ Visual Analogue Scale - Breathing Problems, Change from Baseline, Median” value [1]?
Answer: 0.000

Question: What about the “SHAQ Visual Analogue Scale - Breathing Problems, Change from Baseline, Min” value [1] of the same compound?
Answer: −2.00

Question: And the “SHAQ Visual Analogue Scale - Breathing Problems, Change from Baseline, Q1” value [1]?
Answer: −1.000

Question: And the “SHAQ Visual Analogue Scale - Breathing Problems, Change from Baseline, Q3” value [1]?
Answer: 0.150

Question: And the “SHAQ Visual Analogue Scale - Breathing Problems, Percent Change from Baseline, Max” value [1]?
Answer: 150.0%

Question: What about the “SHAQ Visual Analogue Scale - Breathing Problems, Percent Change from Baseline, Mean” value [1] of the same compound?
Answer: −0.22%

Question: What about the “SHAQ Visual Analogue Scale - Breathing Problems, Percent Change from Baseline, Median” value [1] of the same compound?
Answer: −16.00%

Question: What about the “SHAQ Visual Analogue Scale - Breathing Problems, Percent Change from Baseline, Min” value [1] of the same compound?
Answer: −100.0%

Question: And the “SHAQ Visual Analogue Scale - Breathing Problems, Percent Change from Baseline, Q1” value [1]?
Answer: −66.67%

Question: What about the “SHAQ Visual Analogue Scale - Breathing Problems, Percent Change from Baseline, Q3” value [1] of the same compound?
Answer: 31.58%

Question: What about the “SHAQ Alternative Disability Index, Max” value (In-Clinic Visit (Day 12)) of the same compound?
Answer: 1.25

Question: And the “SHAQ Alternative Disability Index, Mean” value (In-Clinic Visit (Day 12))?
Answer: 0.391

Question: What about the “SHAQ Alternative Disability Index, Median” value (In-Clinic Visit (Day 12)) of the same compound?
Answer: 0.188

Question: What about the “SHAQ Alternative Disability Index, Min” value (In-Clinic Visit (Day 12)) of the same compound?
Answer: 0.00

Question: What about the “SHAQ Alternative Disability Index, Q1” value (In-Clinic Visit (Day 12)) of the same compound?
Answer: 0.000

Question: And the “SHAQ Alternative Disability Index, Q3” value (In-Clinic Visit (Day 12))?
Answer: 0.750

Question: And the “SHAQ Visual Analogue Scale - Finger Ulcers, Max” value (In-Clinic Visit (Day 12))?
Answer: 1.90

Question: What about the “SHAQ Visual Analogue Scale - Finger Ulcers, Mean” value (In-Clinic Visit (Day 12)) of the same compound?
Answer: 0.463

Question: And the “SHAQ Visual Analogue Scale - Finger Ulcers, Median” value (In-Clinic Visit (Day 12))?
Answer: 0.000

Question: And the “SHAQ Visual Analogue Scale - Finger Ulcers, Min” value (In-Clinic Visit (Day 12))?
Answer: 0.00

Question: And the “SHAQ Visual Analogue Scale - Finger Ulcers, Q1” value (In-Clinic Visit (Day 12))?
Answer: 0.000

Question: What about the “SHAQ Visual Analogue Scale - Finger Ulcers, Q3” value (In-Clinic Visit (Day 12)) of the same compound?
Answer: 0.900

Question: What about the “SHAQ Visual Analogue Scale - Intestinal Problems, Max” value (In-Clinic Visit (Day 12)) of the same compound?
Answer: 3.80

Question: And the “SHAQ Visual Analogue Scale - Intestinal Problems, Mean” value (In-Clinic Visit (Day 12))?
Answer: 0.975

Question: And the “SHAQ Visual Analogue Scale - Intestinal Problems, Median” value (In-Clinic Visit (Day 12))?
Answer: 0.300

Question: What about the “SHAQ Visual Analogue Scale - Intestinal Problems, Min” value (In-Clinic Visit (Day 12)) of the same compound?
Answer: 0.00

Question: What about the “SHAQ Visual Analogue Scale - Intestinal Problems, Q1” value (In-Clinic Visit (Day 12)) of the same compound?
Answer: 0.000

Question: And the “SHAQ Visual Analogue Scale - Intestinal Problems, Q3” value (In-Clinic Visit (Day 12))?
Answer: 1.700

Question: What about the “SHAQ Visual Analogue Scale - Overall Disease Severity, Max” value (In-Clinic Visit (Day 12)) of the same compound?
Answer: 5.20

Question: What about the “SHAQ Visual Analogue Scale - Overall Disease Severity, Mean” value (In-Clinic Visit (Day 12)) of the same compound?
Answer: 1.475

Question: And the “SHAQ Visual Analogue Scale - Overall Disease Severity, Median” value (In-Clinic Visit (Day 12))?
Answer: 1.300

Question: What about the “SHAQ Visual Analogue Scale - Overall Disease Severity, Min” value (In-Clinic Visit (Day 12)) of the same compound?
Answer: 0.00

Question: What about the “SHAQ Visual Analogue Scale - Overall Disease Severity, Q1” value (In-Clinic Visit (Day 12)) of the same compound?
Answer: 0.350

Question: What about the “SHAQ Visual Analogue Scale - Overall Disease Severity, Q3” value (In-Clinic Visit (Day 12)) of the same compound?
Answer: 1.650

Question: What about the “SHAQ Visual Analogue Scale - Pain, Max” value (In-Clinic Visit (Day 12)) of the same compound?
Answer: 4.30

Question: What about the “SHAQ Visual Analogue Scale - Pain, Mean” value (In-Clinic Visit (Day 12)) of the same compound?
Answer: 1.875

Question: What about the “SHAQ Visual Analogue Scale - Pain, Median” value (In-Clinic Visit (Day 12)) of the same compound?
Answer: 1.550

Question: What about the “SHAQ Visual Analogue Scale - Pain, Min” value (In-Clinic Visit (Day 12)) of the same compound?
Answer: 0.00

Question: And the “SHAQ Visual Analogue Scale - Pain, Q1” value (In-Clinic Visit (Day 12))?
Answer: 0.550

Question: What about the “SHAQ Visual Analogue Scale - Pain, Q3” value (In-Clinic Visit (Day 12)) of the same compound?
Answer: 3.250

Question: What about the “SHAQ Visual Analogue Scale - Raynaud’s, Max” value (In-Clinic Visit (Day 12)) of the same compound?
Answer: 4.40

Question: And the “SHAQ Visual Analogue Scale - Raynaud’s, Mean” value (In-Clinic Visit (Day 12))?
Answer: 1.900

Question: And the “SHAQ Visual Analogue Scale - Raynaud’s, Median” value (In-Clinic Visit (Day 12))?
Answer: 1.250

Question: What about the “SHAQ Visual Analogue Scale - Raynaud’s, Min” value (In-Clinic Visit (Day 12)) of the same compound?
Answer: 0.00

Question: What about the “SHAQ Visual Analogue Scale - Raynaud’s, Q1” value (In-Clinic Visit (Day 12)) of the same compound?
Answer: 0.700

Question: What about the “SHAQ Visual Analogue Scale - Raynaud’s, Q3” value (In-Clinic Visit (Day 12)) of the same compound?
Answer: 3.450

Question: What about the “SHAQ Visual Analogue Scale - Breathing Problems, Max” value [2] of the same compound?
Answer: 6.30

Question: What about the “SHAQ Visual Analogue Scale - Breathing Problems, Mean” value [2] of the same compound?
Answer: 1.213

Question: And the “SHAQ Visual Analogue Scale - Breathing Problems, Median” value [2]?
Answer: 0.200

Question: What about the “SHAQ Visual Analogue Scale - Breathing Problems, Min” value [2] of the same compound?
Answer: 0.00

Question: And the “SHAQ Visual Analogue Scale - Breathing Problems, Q1” value [2]?
Answer: 0.000

Question: What about the “SHAQ Visual Analogue Scale - Breathing Problems, Q3” value [2] of the same compound?
Answer: 1.500
